Assay results published in the NIST ThermoML archive (doi:10.1021/je100410k).
± gives the expanded uncertainty stated by the source.

Assay: activity coefficient (dimensionless); of the first substance listed, at infinite dilution; xn = mol fraction of the nth substance listed
Details: 101 kPa, Liquid, Chromatography, x1 = 0

Compound	activity coefficient (338.2 K)	activity coefficient (348.2 K)	activity coefficient (358.2 K)	activity coefficient (368.2 K)	activity coefficient (338.15 K)	activity coefficient (348.15 K)	activity coefficient (358.15 K)	activity coefficient (368.15 K)
Cc1ccccc1C [1,2-dimethylbenzene] + CCCCn1cc[n+](C)c1.Cc1ccc(S(=O)(=O)[O-])cc1	4.07 ± 0.28	4.01 ± 0.27	3.96 ± 0.27	3.93 ± 0.27	–	–	–	–
Cc1cccc(C)c1 [1,3-dimethylbenzene] + CCCCn1cc[n+](C)c1.Cc1ccc(S(=O)(=O)[O-])cc1	4.76 ± 0.32	4.67 ± 0.32	4.63 ± 0.32	4.58 ± 0.31	–	–	–	–
Cc1ccc(C)cc1 [1,4-dimethylbenzene] + CCCCn1cc[n+](C)c1.Cc1ccc(S(=O)(=O)[O-])cc1	4.73 ± 0.32	4.64 ± 0.32	4.61 ± 0.31	4.56 ± 0.31	–	–	–	–
C=CCCCCC [1-heptene] + CCCCn1cc[n+](C)c1.Cc1ccc(S(=O)(=O)[O-])cc1	24.2 ± 1.7	22.5 ± 1.5	21.5 ± 1.5	20.4 ± 1.4	–	–	–	–
C#CCCCCC [1-heptyne] + CCCCn1cc[n+](C)c1.Cc1ccc(S(=O)(=O)[O-])cc1	5.13 ± 0.35	5.23 ± 0.36	5.34 ± 0.36	5.43 ± 0.37	–	–	–	–
C#CCCCC [1-hexyne] + CCCCn1cc[n+](C)c1.Cc1ccc(S(=O)(=O)[O-])cc1	3.69 ± 0.25	3.78 ± 0.26	3.86 ± 0.26	3.94 ± 0.27	–	–	–	–
C#CCCCCCC [1-octyne] + CCCCn1cc[n+](C)c1.Cc1ccc(S(=O)(=O)[O-])cc1	7.12 ± 0.49	7.28 ± 0.5	7.39 ± 0.5	7.15 ± 0.49	–	–	–	–
C=CCCC [1-pentene] + CCCCn1cc[n+](C)c1.Cc1ccc(S(=O)(=O)[O-])cc1	13.7 ± 0.9	12.6 ± 0.9	11.9 ± 0.8	11.2 ± 0.8	–	–	–	–
COC(C)(C)C [2-methoxy-2-methylpropane] + CCCCn1cc[n+](C)c1.Cc1ccc(S(=O)(=O)[O-])cc1	8.28 ± 0.56	7.84 ± 0.53	7.58 ± 0.52	7.37 ± 0.5	–	–	–	–
CC(C)=O [acetone] + CCCCn1cc[n+](C)c1.Cc1ccc(S(=O)(=O)[O-])cc1	1.48 ± 0.1	1.46 ± 0.1	1.45 ± 0.1	1.42 ± 0.09	–	–	–	–
c1ccccc1 [benzene] + CCCCn1cc[n+](C)c1.Cc1ccc(S(=O)(=O)[O-])cc1	1.96 ± 0.13	1.93 ± 0.13	1.93 ± 0.13	1.93 ± 0.13	–	–	–	–
C1CCCCCC1 [cycloheptane] + CCCCn1cc[n+](C)c1.Cc1ccc(S(=O)(=O)[O-])cc1	17.7 ± 1.2	16.3 ± 1.1	15.4 ± 1.1	14.5 ± 1	–	–	–	–
C1CCCCC1 [cyclohexane] + CCCCn1cc[n+](C)c1.Cc1ccc(S(=O)(=O)[O-])cc1	16.3 ± 1.1	14.6 ± 1	13.4 ± 0.9	12.5 ± 0.9	–	–	–	–
C1CCCCCCC1 [cyclooctane] + CCCCn1cc[n+](C)c1.Cc1ccc(S(=O)(=O)[O-])cc1	21.3 ± 1.5	19.7 ± 1.3	18.6 ± 1.3	17.6 ± 1.2	–	–	–	–
C1CCCC1 [cyclopentane] + CCCCn1cc[n+](C)c1.Cc1ccc(S(=O)(=O)[O-])cc1	11.3 ± 0.8	9.9 ± 0.7	9.3 ± 0.6	9 ± 0.6	–	–	–	–
CCCCCCCCCC [decane] + CCCCn1cc[n+](C)c1.Cc1ccc(S(=O)(=O)[O-])cc1	119 ± 8.1	106 ± 7.3	98.3 ± 6.7	90.8 ± 6.2	–	–	–	–
CCOCC [diethyl ether] + CCCCn1cc[n+](C)c1.Cc1ccc(S(=O)(=O)[O-])cc1	6.57 ± 0.45	6.36 ± 0.43	6.16 ± 0.42	5.93 ± 0.4	–	–	–	–

Compound	activity coefficient (338.2 K)	activity coefficient (348.2 K)	activity coefficient (358.2 K)	activity coefficient (368.2 K)	activity coefficient (338.15 K)	activity coefficient (348.15 K)	activity coefficient (358.15 K)	activity coefficient (368.15 K)
CCCOCCC [dipropyl ether] + CCCCn1cc[n+](C)c1.Cc1ccc(S(=O)(=O)[O-])cc1	15.5 ± 1.1	15.2 ± 1	14.2 ± 1	13.6 ± 0.9	–	–	–	–
CCO [ethanol] + CCCCn1cc[n+](C)c1.Cc1ccc(S(=O)(=O)[O-])cc1	0.359 ± 0.033	0.357 ± 0.033	0.358 ± 0.033	0.358 ± 0.033	–	–	–	–
CCc1ccccc1 [ethylbenzene] + CCCCn1cc[n+](C)c1.Cc1ccc(S(=O)(=O)[O-])cc1	4.45 ± 0.3	4.4 ± 0.3	4.36 ± 0.3	4.32 ± 0.29	–	–	–	–
CCCCCCC [heptane] + CCCCn1cc[n+](C)c1.Cc1ccc(S(=O)(=O)[O-])cc1	–	–	–	–	48.1 ± 3.3	42.2 ± 2.9	39.2 ± 2.7	36.6 ± 2.5
C=CCCCC [hex-1-ene] + CCCCn1cc[n+](C)c1.Cc1ccc(S(=O)(=O)[O-])cc1	18 ± 1.2	16.6 ± 1.1	15.7 ± 1.1	14.9 ± 1	–	–	–	–
CCCCCC [hexane] + CCCCn1cc[n+](C)c1.Cc1ccc(S(=O)(=O)[O-])cc1	–	–	–	–	36.3 ± 2.5	31.5 ± 2.2	29.2 ± 2	27.6 ± 1.9
CO [methanol] + CCCCn1cc[n+](C)c1.Cc1ccc(S(=O)(=O)[O-])cc1	0.217 ± 0.029	0.219 ± 0.029	0.221 ± 0.029	0.223 ± 0.029	–	–	–	–
CCCCCCCCC [nonane] + CCCCn1cc[n+](C)c1.Cc1ccc(S(=O)(=O)[O-])cc1	86.1 ± 5.9	77.5 ± 5.3	71.3 ± 4.9	66.5 ± 4.6	–	–	–	–
C=CCCCCCC [oct-1-ene] + CCCCn1cc[n+](C)c1.Cc1ccc(S(=O)(=O)[O-])cc1	33.1 ± 2.3	31 ± 2.1	29.5 ± 2	28.2 ± 1.9	–	–	–	–
CCCCCCCC [octane] + CCCCn1cc[n+](C)c1.Cc1ccc(S(=O)(=O)[O-])cc1	63.9 ± 4.4	57.7 ± 4	53 ± 3.6	49.6 ± 3.4	–	–	–	–
CCCC(C)=O [pentan-2-one] + CCCCn1cc[n+](C)c1.Cc1ccc(S(=O)(=O)[O-])cc1	2.68 ± 0.18	2.64 ± 0.18	2.61 ± 0.18	2.58 ± 0.18	–	–	–	–
CCC(=O)CC [pentan-3-one] + CCCCn1cc[n+](C)c1.Cc1ccc(S(=O)(=O)[O-])cc1	2.68 ± 0.18	2.65 ± 0.18	2.63 ± 0.18	2.6 ± 0.18	–	–	–	–
CCCO [propan-1-ol] + CCCCn1cc[n+](C)c1.Cc1ccc(S(=O)(=O)[O-])cc1	0.437 ± 0.035	0.434 ± 0.035	0.437 ± 0.035	0.437 ± 0.035	–	–	–	–
C1CCOC1 [tetrahydrofuran] + CCCCn1cc[n+](C)c1.Cc1ccc(S(=O)(=O)[O-])cc1	1.88 ± 0.13	1.87 ± 0.13	1.86 ± 0.13	1.85 ± 0.12	–	–	–	–
c1ccsc1 [thiophene] + CCCCn1cc[n+](C)c1.Cc1ccc(S(=O)(=O)[O-])cc1	1.11 ± 0.07	1.13 ± 0.07	1.14 ± 0.07	1.16 ± 0.07	–	–	–	–
Cc1ccccc1 [toluene] + CCCCn1cc[n+](C)c1.Cc1ccc(S(=O)(=O)[O-])cc1	3.03 ± 0.21	3.01 ± 0.2	2.99 ± 0.2	2.97 ± 0.2	–	–	–	–
O [water] + CCCCn1cc[n+](C)c1.Cc1ccc(S(=O)(=O)[O-])cc1	0.191 ± 0.029	0.196 ± 0.029	0.201 ± 0.029	0.207 ± 0.029	–	–	–	–
